Experimental data as given in patent US20230012172A1, “COMPOSITIONS AND METHODS FOR TREATMENT OF PLATINUM-BASED CHEMOTHERAPEUTIC RESISTANT TUMORS” (The George Washington University, priority 2020, published 2023).
Residue numbers refer to the chain shown, from its start.

What was measured:
PE023 cells = assay: Cell viability assay (SRB) in PE023 cells; assay type: cell-based
Procedure: (§1) Cell culture and resistance cell line establishment. IGROV1 cells, U2OS (HTB-96; ATCC), HEK293T (CRL-11268; ATCC) and SKOV3 cells (HTB-77; ATCC) were cultured at 37° C. in DMEM with 10% Fetal Bovine Serum (FBS). PEO1 (10032308; Sigma-Aldrich), PEO4 (10032309; Sigma-Aldrich), PEO14 (10032311; Sigma-Aldrich) and PE023 cells (10032313; Sigma-Aldrich) were cultured at 37° C. in RPMI-1640 with 10% FBS. OV90 (CRL-11732; ATCC) was cultured in medium containing 1:1 MCDB 105 (Sigma) and M199 (Sigma) supplemented with 10% FBS at 37 ° C. All the cells were cultured at in a humidified incubator with 5% CO2 atmosphere. Cisplatin resistant cell lines, including SKOV3 CR, IGROV1 CR and OV90 CR, were generated using an approach similar to that reported in Zhou et al., (2018) Oncogene 37, 3981-3997, the disclosure of which is incorporated herein in its entirety.
(§2) Cell viability assay. Cells were seeded at 3,000 cells/well in 96-well plates were treated with drugs, followed by incubation for 48 hours, after which cell viability was detected using Sulforhodamine B (SRB) assay (64). Absorbance at 510 nm was detected using a SpectraMax Reader (Molecular Devices) and analyzed with SoftMax Analysis Software (Molecular Devices). Combinational index (CI) values were calculated using CompuSyn software.

SKOV3 CR cells = assay: Cell viability assay (SRB) in SKOV3 CR cells; assay type: cell-based; conditions: SKOV3 CR cells
Procedure: as §1, with “Sigma-Aldrich) and PE023 cells (10032313;” left out, “ATCC) was cultured in medium containing 1:1 MCDB 105 (Sigma) and M199 (Sigma) supplemented with 10% FBS at 37 ° C.” left out, “entirety. Cell viability assay. Cells were seeded at 3,000 cells/well in 96-well plates were treated with drugs, followed by incubation for 48 hours, after which cell viability was detected using Sulforhodamine B (SRB) assay (64). Absorbance at 510 nm was detected using a SpectraMax Reader (Molecular Devices) and analyzed with SoftMax Analysis Software (Molecular Devices). Combinational index (CI) values were calculated using CompuSyn software.” for “entirety.”

SENP1-C603A = biological target: T1, SENP1-C603A (Homo sapiens, UniProt Q9P0U3, C603A); assay: In vitro thermal shift assay with mutant SENP1-C603A; assay type: binding; conditions: purified mutant SENP1-C603A
T1 construct: made in house; host or cells: E. coli implied (pGEX-4T1 vector)
T1 sequence (Q9P0U3 1-644 C603A): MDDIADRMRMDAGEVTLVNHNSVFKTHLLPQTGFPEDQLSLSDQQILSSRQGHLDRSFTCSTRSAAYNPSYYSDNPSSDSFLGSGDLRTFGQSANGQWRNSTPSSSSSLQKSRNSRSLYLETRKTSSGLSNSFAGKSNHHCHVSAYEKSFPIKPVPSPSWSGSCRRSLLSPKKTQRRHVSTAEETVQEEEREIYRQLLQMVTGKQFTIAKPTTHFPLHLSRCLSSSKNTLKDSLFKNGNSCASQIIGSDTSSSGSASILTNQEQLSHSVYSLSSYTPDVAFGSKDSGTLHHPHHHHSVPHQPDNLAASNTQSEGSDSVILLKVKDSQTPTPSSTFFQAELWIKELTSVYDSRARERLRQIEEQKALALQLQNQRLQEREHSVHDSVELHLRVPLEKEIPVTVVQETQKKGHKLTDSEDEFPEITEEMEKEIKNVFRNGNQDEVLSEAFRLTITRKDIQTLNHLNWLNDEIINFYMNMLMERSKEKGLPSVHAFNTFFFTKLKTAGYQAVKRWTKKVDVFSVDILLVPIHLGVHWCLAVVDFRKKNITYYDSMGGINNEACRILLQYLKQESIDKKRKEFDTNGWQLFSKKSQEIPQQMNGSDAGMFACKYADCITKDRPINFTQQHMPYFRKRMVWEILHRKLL

SENP1 [1] = biological target: T2, SENP1 (Homo sapiens, UniProt Q9P0U3); assay: Cell free thermal shift assay with recombinant SENP1; assay type: binding; design: GST (N); made in house; host or cells: E. coli implied (pGEX-4T1 vector; BL21 (DE3) is stated only for pET28a-JAK2)
T2 sequence (Q9P0U3 1-644): T1 sequence (Q9P0U3 1-644 C603A) with A603C

SENP1 [2] = biological target: T2, SENP1; assay: Cellular thermal shift assay; conditions: IGROV1 cells, higher temperature
Procedure: To determine whether UA binds to SENP1 directly, cellular thermal shift assays were performed in which a small molecule binds to a protein resulting in thermal stabilization of the protein.

IGROV1 CR cells = assay: Cell viability assay (SRB) in IGROV1 CR cells; assay type: cell-based, human; conditions: 150 nM UA, IGROV1 CR cells
Procedure: as §1, §2

SMILES | re-sensitization to cisplatin (PE023 cells) | synergy with cisplatin (combination index) (PE023 cells) | re-sensitization to cisplatin (SKOV3 CR cells) | synergistic effects with cisplatin (combination index) (SKOV3 CR cells) | thermal stabilization of SENP1-C603A proteins (SENP1-C603A) | thermal stabilization of recombinant SENP1 proteins (SENP1 [1]) | SENP1 protein thermal stabilization versus DMSO (SENP1 [2]) | CI value with cisplatin, cell survival (IGROV1 CR cells)
CC1(C)CC[C@]2(C(=O)O)CC[C@]3(C)C(=CC[C@@H]4[C@@]5(C)CC[C@H](O[C@@H]6O[C@H](C(=O)O)[C@@H](O)[C@H](O[C@@H]7OC[C@@H](O)[C@H](O)[C@H]7O)[C@H]6O)C(C)(C)[C@@H]5CC[C@]43C)[C@@H]2C1 [Mc, Momordin Ic] | re-sensitized | synergy | re-sensitized | synergy | no longer stabilized | – | – | –
C[C@H]1[C@H](C)CC[C@]2(C(=O)O)CC[C@]3(C)C(=CC[C@@H]4[C@@]5(C)CC[C@H](O)C(C)(C)[C@@H]5CC[C@]43C)[C@H]12 [UA, ursolic acid] | – | – | – | – | no longer stabilized | stabilized | stabilized | < 1
